Measured values as given in patent publication US20240285765A1, “PHTHALOCYANINE DYE COMPOUNDS, CONJUGATES AND METHODS OF USE THEREOF” (Rakuten Medical, Inc., priority 2021, published 2024).

Columns and labels:
[1] = Singlet oxygen quantum yield, indirect method with chemical quencher (DPBF or ADMA); assay type: physicochemical
Source text: Photogeneration quantum yields of singlet oxygen (ΦΔ) were obtained by an indirect method, using either diphenylisobenzofuran (DBPF) or anthracene-9,10-bis-methylmalonate (ADMA) as chemical quenchers in either N,N-dimethylformamide or aqueous media, respectively. Typically, a solution of the phthalocyanine and the quencher was irradiated with a red LED lamp (670 nm) at 5 mW/cm^2. The initial DPBF or ADMA concentrations were kept the same for both the reference and the test samples. The degradation of the DPBF band at 414 nm or ADMA at 401 nm was monitored in a Varian Cary® 50 UV-Vis spectrophotometer, every five seconds in the case of DPBF (up to 30 seconds) and every minute in the case of ADMA (up to five minutes). ZnPc (ΦΔ=0.67) and AlPcSmix (ΦΔ=0.42) were used as references in N,N-dimethylformamide or aqueous media, respectively.
The relative method shown by Eq. (1) was employed for calculations of the ΦΔ:
[formula] • where ΦΔ and ΦΔref are the ^1O2 generation quantum yields for the sample and reference, respectively, m and mref are the DPBF or ADMA photobleaching rates in the presence of the phthalocyanine of the invention and the reference, respectively, and I and Iref are the rates of light absorption by the phthalocyanine derivative and reference, respectively. Concentrations of the test compound and reference were chosen such that their respective absorptions at the irradiation wavelength were the same.

[2] = Kinetic (aqueous) solubility in pH 7.4 DPBS, UV quantification; conditions: for solubility kinetic at 4 h: pH 7.4, aqueous buffer, kinetic from dmso stock; for Solubility* (kinetic solubility): pH 7.4 DPBS, 4 hours, room temperature (25° C.)
[3] = quencher ADMA, aqueous media, 670 nm LED 5 mW/cm^2, reference AlPcSmix

Structure (SMILES): C[Si](C)(CCC[N+](CCCCS(=O)(=O)O)(CCCCS(=O)(=O)O)CCCCS(=O)(=O)O)O[Si-2]123(O[Si](C)(C)CCC[N+](CCCCS(=O)(=O)O)(CCCCS(=O)(=O)O)CCOCCOCCOCCC(=O)O)n4c5c6ccccc6c4N=C4c6ccccc6C(=[N+]41)N=c1c4ccccc4c(n12)=NC1=[N+]3C(=N5)c2ccccc21.[Na+].[Na+].[Na+].[Na+] [Example 17, Sodium 2-((19-((dimethyl(3-(tris(4-sulfonatobutyl)ammonio)propyl)silyl)oxy)-19H-6,11-(azeno)-17,21-(azeno[3]episoindoloazeno)benzo[7,8][1,3,5,10]tetraaza[2]silacycloundecino[4,3-a:11,1-a′]diisoindol-19-yl)oxy)-2-methyl-6,6-bis(4-sulfonatobutyl)-9,12,15-trioxa-6-aza-2-silaoctadecan-6-ium-18-oate]
- ΦΔ (singlet oxygen quantum yield) [1, 3]: B (B: >0.5)
- solubility kinetic at 4 h ([2]; 25 °C): > 100 µg/mL

Structure (SMILES): C[Si](C)(CCCNC(=O)CCC[N+](CCCS(=O)(=O)[O-])(CCCS(=O)(=O)O)CCCS(=O)(=O)O)O[Si]1(O[Si](C)(C)CCCNC(=O)COCC(=O)O)n2c3c4ccccc4c2N=C2N=C(N=c4c5ccccc5c(n41)=NC1=NC(=N3)c3ccccc31)c1ccccc12.N (stereo not drawn) [Example 5, Ammonium 3-((4-((3-(((19-(((3-(2-(carboxymethoxy)acetamido)propyl)dimethylsilyl)oxy)-19H-6,11-(azeno)-17,21-(azeno[3]episoindoloazeno)benzo[7,8][1,3,5,10]tetraaza[2]silacycloundecino[4,3-a:11,1-a′]diisoindol-19-yl)oxy)dimethylsilyl)propyl)amino)-4-oxobutyl)bis(3-sulfopropyl)ammonio)propane-1-sulfonate]
- ΦΔ (singlet oxygen quantum yield) [1, 3]: B (B: >0.5)

Structure (SMILES): COCCOCCOCC(=O)NCCC[Si](C)(C)O[Si-2]123(O[Si](C)(C)CCCNC(=O)CCCCC(=O)O)n4c5c6ccccc6c4N=C4c6ccccc6C(=[N+]41)N=c1c4ccccc4c(n12)=NC1=[N+]3C(=N5)c2ccccc21 [Example 1, 6-((3-(dimethyl((19-((15-methyl-10-oxo-2,5,8-trioxa-11-aza-15-silahexadecan-15-yl)oxy)-19H-6,11-(azeno)-17,21-(azeno[3]episoindoloazeno)benzo[7,8][1,3,5,10]tetraaza[2]silacycloundecino[4,3-a:11,1-a′]diisoindol-19-yl)oxy)silyl)propyl)amino)-6-oxohexanoic acid]
- ΦΔ (singlet oxygen quantum yield) ([1]; quencher DPBF, N,N-dimethylformamide, 670 nm LED 5 mW/cm^2, reference ZnPc): A (A: ≤0.5)

Structure (SMILES): C[Si](C)(CCC[N+](CCCS(=O)(=O)[O-])(CCCS(=O)(=O)[O-])CCCS(=O)(=O)[O-])O[Si@@]1(O[Si](C)(C)CCC[N+](CCCS(=O)(=O)[O-])(CCCS(=O)(=O)[O-])CCOCCOCCOCCC(=O)[O-])n2c3c4ccccc4c2/N=C2N=C(/N=c4/c5ccccc5/c(n41)=N/C1=NC(=N\3)/c3ccccc31)c1ccccc1\2.[Na+].[Na+].[Na+].[Na+] [Example 19, Sodium 2-((19-((dimethyl(3-(tris(3-sulfonatopropyl)ammonio)propyl)silyl)oxy)-19H-6,11-(azeno)-17,21-(azeno[3]episoindoloazeno)benzo[7,8][1,3,5,10]tetraaza[2]silacycloundecino[4,3-a:11,1-a′]diisoindol-19-yl)oxy)-2-methyl-6,6-bis(3-sulfonatopropyl)-9,12,15-trioxa-6-aza-2-silaoctadecan-6-ium-18-oate]
- ΦΔ (singlet oxygen quantum yield) [1, 3]: B (B: >0.5)
- solubility kinetic at 4 h ([2]; 25 °C): > 100 µg/mL

Structure (SMILES): C[Si](C)(CCCNC(=O)COCC(=O)O)O[Si]1(O[Si](C)(C)CCCNC(=O)NCCS(=O)(=O)O)n2c3c4ccccc4c2N=C2N=C(N=c4c5ccccc5c(n41)=NC1=NC(=N3)c3ccccc31)c1ccccc12.N (stereo not drawn) [Example 7, Ammonium 2-(2-((3-(((19-((dimethyl(3-(3-(2-sulfonatoethyl)ureido)propyl)silyl)oxy)-19H-6,11-(azeno)-17,21-(azeno[1]episoindoloazeno)benzo[7,8][1,3,5,10]tetraaza[2]silacycloundecino[4,3-a:11,1-a′]diisoindol-19-yl)oxy)dimethylsilyl)propyl)amino)-2-oxoethoxy)acetate]
- Solubility* (kinetic solubility) [2]: A (A: ≤1 μg/mL)

Structure (SMILES): C[Si](C)(CCCNC(=O)CCCN(CCCS(=O)(=O)O)CCCS(=O)(=O)O)O[Si]1(O[Si](C)(C)CCCNC(=O)COCC(=O)O)n2c3c4ccccc4c2N=C2N=C(N=c4c5ccccc5c(n41)=NC1=NC(=N3)c3ccccc31)c1ccccc12.N (stereo not drawn) [Example 15, Ammonium 2-(2-((3-(((19-(((3-(4-(bis(3-sulfonatopropyl)ammonio)butanamido)propyl)dimethylsilyl)oxy)-19H-6,11-(azeno)-17,21-(azeno[1]episoindoloazeno)benzo[7,8][1,3,5,10]tetraaza[2]silacycloundecino[4,3-a:11,1-a′]diisoindol-19-yl)oxy)dimethylsilyl)propyl)amino)-2-oxoethoxy)acetate]
- Solubility* (kinetic solubility) [2]: B (B: >1 μg/mL to ≤100 μg/mL)

Structure (SMILES): C[Si](C)(CCCNC(=O)COCC(=O)O)O[Si]1(O[Si](C)(C)CCCNC(=O)NCC(S(=O)(=O)O)S(=O)(=O)O)n2c3c4ccccc4c2N=C2N=C(N=c4c5ccccc5c(n41)=NC1=NC(=N3)c3ccccc31)c1ccccc12.N (stereo not drawn) [Example 8, Ammonium 2-(2-((3-(((19-(((3-(3-(2,2-disulfonatoethyl)ureido)propyl)dimethylsilyl)oxy)-19H-6,11-(azeno)-17,21-(azeno[1]episoindoloazeno)benzo[7,8][1,3,5,10]tetraaza[2]silacycloundecino[4,3-a:11,1-a′]diisoindol-19-yl)oxy)dimethylsilyl)propyl)amino)-2-oxoethoxy)acetate]
- Solubility* (kinetic solubility) [2]: A (A: ≤1 μg/mL)

Structure (SMILES): C[Si](C)(CCC[N+](CCCCS(=O)(=O)[O-])(CCCCS(=O)(=O)[O-])CCCCS(=O)(=O)[O-])O[Si@@]1(O[Si](C)(C)CCC[N+](CCCCS(=O)(=O)[O-])(CCCCS(=O)(=O)[O-])CCOCCOCCC(=O)[O-])n2c3c4ccccc4c2/N=C2N=C(/N=c4/c5ccccc5/c(n41)=N/C1=NC(=N\3)/c3ccccc31)c1ccccc1\2.[Na+].[Na+].[Na+].[Na+] [Example 18, Sodium 2-((19-((dimethyl(3-(tris(4-sulfonatobutyl)ammonio)propyl)silyl)oxy)-19H-6,11-(azeno)-17,21-(azeno[3]episoindoloazeno)benzo[7,8][1,3,5,10]tetraaza[2]silacycloundecino[4,3-a:11,1-a′]diisoindol-19-yl)oxy)-2-methyl-6,6-bis(4-sulfonatobutyl)-9,12-dioxa-6-aza-2-silapentadecan-6-ium-15-oate]
- ΦΔ (singlet oxygen quantum yield) [1, 3]: B (B: >0.5)
- solubility kinetic at 4 h ([2]; 25 °C): > 100 µg/mL

Structure (SMILES): COCCOCCOCCN(CCCOC(=O)NCCC[Si](C)(C)O[Si-2]123(O[Si](C)(C)CCCNC(=O)COCC(=O)O)n4c5c6ccccc6c4N=C4c6ccccc6C(=[N+]41)N=c1c4ccccc4c(n12)=NC1=[N+]3C(=N5)c2ccccc21)CCOCCOCCOC [Example 3, 2-(2-((3-(((19-((11-(2-(2-(2-methoxyethoxy)ethoxy)ethyl)-21-methyl-16-oxo-2,5,8,15-tetraoxa-11,17-diaza-21-siladocosan-21-yl)oxy)-19H-6,11-(azeno)-17,21-(azeno[3]episoindoloazeno)benzo[7,8][1,3,5,10]tetraaza[2]silacycloundecino[4,3-a:11,1-a′]diisoindol-19-yl)oxy)dimethylsilyl)propyl)amino)-2-oxoethoxy)acetic acid]
- solubility kinetic at 4 h ([2]; Dulbecco's phosphate-buffered saline (DPBS), pH 7.4, 25 °C): < 1 µg/mL
